Data as given in the NIST ThermoML archive (doi:10.1021/je100693c).
Several values for one entry are separate records, joined by “and”; a condition that tells them apart may be missing. Equal values may be shown once.

What was measured:
[1] = 101 kPa, Liquid, Vibrating tube method
[2] = xn = mol fraction of the nth substance listed; conditions: 101 kPa, Liquid, Vibrating tube method
[3] = excess molar enthalpy (molar enthalpy of mixing); xn = mol fraction of the nth substance listed; conditions: 101 kPa, Liquid

CCCCn1cc[n+](C)c1.F[B-](F)(F)F [1-butyl-3-methylimidazolium tetrafluoroborate]
[1]
Conditions | mass density [kg/m3]
283.15 K | 1213.3
293.15 K | 1205.9
303.15 K | 1198.6
313.15 K | 1191.4
323.15 K | 1184.4
333.15 K | 1177.4

CCCCn1cc[n+](C)c1.F[B-](F)(F)F [1-butyl-3-methylimidazolium tetrafluoroborate] + OCC(F)(F)F
[2], x1 = 1
Conditions | mass density [kg/m3]
283.15 K | 1213.3
293.15 K | 1205.9
303.15 K | 1198.6
313.15 K | 1191.4
323.15 K | 1184.4
333.15 K | 1177.4

CCn1cc[n+](C)c1.F[B-](F)(F)F [1-ethyl-3-methylimidazolium tetrafluoroborate]
[1]
Conditions | mass density [kg/m3]
293.1 K | 1284.3
303.11 K | 1276.5
313.15 K | 1269.2
323.14 K | 1261.8
333.23 K | 1254.6

CCn1cc[n+](C)c1.F[B-](F)(F)F [1-ethyl-3-methylimidazolium tetrafluoroborate] + OCC(F)(F)F
[2], x1 = 1
Conditions | mass density [kg/m3]
293.1 K | 1284.3
303.11 K | 1276.5
313.15 K | 1269.2
323.14 K | 1261.8
333.23 K | 1254.6

OCC(F)(F)F [2,2,2-trifluoroethanol]
[1]
Conditions | mass density
283.15 K | 1408.2 kg/m3
293.14 K | 1389.7 kg/m3
293.15 K | 1391.1 kg/m3
303.15 K | 1373.8 kg/m3
303.19 K | 1372.4 kg/m3
313.15 K | 1356.1 kg/m3 and 1354.8 kg/m3
323.15 K | 1338 kg/m3 and 1336.6 kg/m3
333.15 K | 1317.8 kg/m3 and 1319.1 kg/m3

OCC(F)(F)F [2,2,2-trifluoroethanol] + CCn1cc[n+](C)c1.F[B-](F)(F)F
Conditions | excess molar enthalpy [kcal/mol] | mass density [kg/m3]
[2], 293.14 K, x2 = 0 | – | 1389.7
[2], 293.14 K, x2 = 0.755 | – | 1299.6
[2], 293.15 K, x2 = 0.099 | – | 1373.3
[2], 293.16 K, x2 = 0.305 | – | 1340.6
[2], 293.17 K, x2 = 0.5164 | – | 1318.4
[2], 303.16 K, x2 = 0.5164 | – | 1308.9
[2], 303.17 K, x2 = 0.099 | – | 1359.1
[2], 303.17 K, x2 = 0.755 | – | 1291.3
[2], 303.18 K, x2 = 0.305 | – | 1329.4
[2], 303.19 K, x2 = 0 | – | 1372.4
[2], 313.15 K, x2 = 0 | – | 1354.8
[2], 313.15 K, x2 = 0.099 | – | 1344.7
[2], 313.16 K, x2 = 0.305 | – | 1318.4
[2], 313.16 K, x2 = 0.755 | – | 1282.9
[2], 313.19 K, x2 = 0.5164 | – | 1299.3
[2], 323.12 K, x2 = 0.099 | – | 1330.5
[2], 323.14 K, x2 = 0.5164 | – | 1290.2
[2], 323.15 K, x2 = 0 | – | 1336.6
[2], 323.15 K, x2 = 0.305 | – | 1307.3
[2], 323.2 K, x2 = 0.755 | – | 1274.7
[2], 333.14 K, x2 = 0.755 | – | 1266.8
[2], 333.15 K, x2 = 0 | – | 1317.8
[2], 333.15 K, x2 = 0.5164 | – | 1281.1
[2], 333.16 K, x2 = 0.305 | – | 1296.4
[2], 333.2 K, x2 = 0.099 | – | 1315.8
[3], 298.15 K, x2 = 0.0555 | 0.0929 | –
[3], 298.15 K, x2 = 0.1114 | 0.15 | –
[3], 298.15 K, x2 = 0.1904 | 0.256 | –
[3], 298.15 K, x2 = 0.3199 | 0.288 | –
[3], 298.15 K, x2 = 0.4137 | 0.273 | –
[3], 298.15 K, x2 = 0.4847 | 0.25 | –
[3], 298.15 K, x2 = 0.5852 | 0.208 | –
[3], 298.15 K, x2 = 0.7016 | 0.155 | –
[3], 298.15 K, x2 = 0.79 | 0.112 | –
[3], 298.15 K, x2 = 0.9039 | 0.0506 | –
[3], 323.15 K, x2 = 0.0555 | 0.0535 | –
[3], 323.15 K, x2 = 0.1114 | 0.0933 | –
[3], 323.15 K, x2 = 0.1904 | 0.172 | –
[3], 323.15 K, x2 = 0.2477 | 0.181 | –
[3], 323.15 K, x2 = 0.3199 | 0.185 | –
[3], 323.15 K, x2 = 0.4137 | 0.171 | –
[3], 323.15 K, x2 = 0.4847 | 0.155 | –
[3], 323.15 K, x2 = 0.5852 | 0.126 | –
[3], 323.15 K, x2 = 0.7016 | 0.0908 | –
[3], 323.15 K, x2 = 0.79 | 0.0632 | –
[3], 323.15 K, x2 = 0.9216 | 0.0233 | –
